Assay results published in patent US8067424B2, “Selective inhibitors for cyclin-dependent kinases” (Emory University, priority 2007, dated 2011).
Read-outs that look alike come from different tables or passages of the source.

Key:
Type in all cases: biochemical
p38σ MAPK = target: T1, p38σ MAPK (Homo sapiens, UniProt O15264); assay: Kinase screen: SAPK 4/p38d assay
T1 sequence (O15264 1-365): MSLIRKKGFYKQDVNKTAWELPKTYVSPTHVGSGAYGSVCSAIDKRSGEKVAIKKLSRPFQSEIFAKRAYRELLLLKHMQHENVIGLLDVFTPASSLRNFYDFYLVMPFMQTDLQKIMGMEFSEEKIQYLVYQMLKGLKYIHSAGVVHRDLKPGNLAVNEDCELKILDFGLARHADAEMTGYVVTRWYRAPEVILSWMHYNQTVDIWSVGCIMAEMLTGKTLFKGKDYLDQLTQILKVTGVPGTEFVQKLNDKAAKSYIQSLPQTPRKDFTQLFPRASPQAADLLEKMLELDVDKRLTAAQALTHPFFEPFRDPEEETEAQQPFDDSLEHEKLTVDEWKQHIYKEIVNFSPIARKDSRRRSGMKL
Procedure: (§1) Generally, the same procedure was used for all assays. Since the total assay volume was 25.5 microliters, 0.5 microliters of inhibitors at 51× assay concentration were added to the plates before any other addition.
(§2) The basic procedure was to add 0.5 microliters inhibitor/control in DMSO to plate. Fifteen microliters of enzyme/substrate/buffer mix were added and incubated for 5 min. Ten microliters MgATP at the relevant concentration were added and incubated for 30 min. The assay was stopped by adding 5 microliters of 3% orthophosphoric acid. The assay was transferred to a p81 filter plate and read in a scintillation counter of 30 sec/well. Note that this assay procedure was not followed for MKK1, which instead involved a two-step assay, and PKC alpha, which required the addition of lipid vesicles.
SAPK 4/p38d assay: SAPK 4/p38d (5-20 mU diluted in 50 mM Tris pH 7.5, 0.1 mM EGTA, 0.1 mM Na3VO4, 0.1% b-mercaptoethanol, 1 mg/ml BSA) was assayed against MBP in a final volume of 25.5 μl containing 25 mM Tris pH 7.5, 0.1 mM EGTA, 0.33 mg/ml MBP, 10 mM magnesium acetate and 0.005 mM [33P-g-ATP] (50-1000 cpm/pmole) and incubated for 30 min at room temperature. Assays were stopped by addition of 5 μl of 0.5 M (3%) orthophosphoric acid and then harvested onto P81 Unifilter plates with a wash buffer of 50 mM orthophosphoric acid.

ERK8 = target: T2, ERK8 (Homo sapiens, UniProt Q8TD08); assay: Kinase screen: ERK8 assay
T2 sequence (Q8TD08 1-544): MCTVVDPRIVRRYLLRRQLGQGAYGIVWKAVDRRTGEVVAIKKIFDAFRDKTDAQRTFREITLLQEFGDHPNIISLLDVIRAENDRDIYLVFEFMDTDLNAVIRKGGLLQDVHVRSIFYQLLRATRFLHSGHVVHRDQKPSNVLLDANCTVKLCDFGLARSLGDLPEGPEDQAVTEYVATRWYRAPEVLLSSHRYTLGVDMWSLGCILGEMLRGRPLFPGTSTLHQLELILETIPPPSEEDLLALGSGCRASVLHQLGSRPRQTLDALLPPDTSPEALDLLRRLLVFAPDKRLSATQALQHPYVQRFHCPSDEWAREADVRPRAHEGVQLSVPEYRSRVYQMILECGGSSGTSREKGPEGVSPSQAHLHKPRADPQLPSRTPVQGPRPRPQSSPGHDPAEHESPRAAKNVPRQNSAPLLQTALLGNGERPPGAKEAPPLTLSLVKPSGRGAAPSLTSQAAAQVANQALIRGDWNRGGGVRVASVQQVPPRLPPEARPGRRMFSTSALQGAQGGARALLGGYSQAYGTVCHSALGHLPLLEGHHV
Procedure: as §1, §2
ERK8 assay: 5-20 mU of ERK8 (diluted in 50 mM Tris (pH 7.5), 0.1 mM EGTA, 1 mg/ml BSA, 0.1%, b-Mercaptoethanol) was assayed against MBP in a final volume of 25.5 μl containing 50 mM Tris (pH 7.5), 0.1 mM EGTA, 0.1%, b-Mercaptoethanol, 0.33 mg/ml MBP, 10 mM magnesium acetate and 0.005 mM [33P-g-ATP] (500-1000 cpm/pmole) and incubated for 30 mins at room temperature. Assays were stopped by addition of 5 μl of 0.5M (3%) orthophosphoric acid. Assays were harvested onto P81 Unifilter plates using a wash buffer of 50 mM orthophosphoric acid.

PKA = PKA (Homo sapiens, UniProt P17612); assay: Kinase screen: PKA assay
Procedure: as §1, §2
PKA assay: PKA (5-20 mU diluted in 20 mM MOPS pH 7.5, 1 mM EDTA, 0.01% Brij35, 0.1% b-mercaptoethanol, 1 mg/ml BSA) was assayed against Kemptide (LRRASLG) (SEQ ID NO: 6) in a final volume of 25.5 μl containing 8 mM MOPS pH 7.5, 0.2 mM EDTA, 30 μM substrate peptide, 10 mM magnesium acetate and 0.005 mM [33P-g-ATP] (50-1000 cpm/pmole) and incubated for 30 min at room temperature. Assays were stopped by addition of 5 μl of 0.5 M (3%) orthophosphoric acid and then harvested onto P81 Unifilter plates with a wash buffer of 50 mM orthophosphoric acid.

GSK3β = GSK3β (Homo sapiens, UniProt P49841); assay: Kinase screen: GSK3b assay
GSK3β, sequence (P49841 whole entry, species assumed): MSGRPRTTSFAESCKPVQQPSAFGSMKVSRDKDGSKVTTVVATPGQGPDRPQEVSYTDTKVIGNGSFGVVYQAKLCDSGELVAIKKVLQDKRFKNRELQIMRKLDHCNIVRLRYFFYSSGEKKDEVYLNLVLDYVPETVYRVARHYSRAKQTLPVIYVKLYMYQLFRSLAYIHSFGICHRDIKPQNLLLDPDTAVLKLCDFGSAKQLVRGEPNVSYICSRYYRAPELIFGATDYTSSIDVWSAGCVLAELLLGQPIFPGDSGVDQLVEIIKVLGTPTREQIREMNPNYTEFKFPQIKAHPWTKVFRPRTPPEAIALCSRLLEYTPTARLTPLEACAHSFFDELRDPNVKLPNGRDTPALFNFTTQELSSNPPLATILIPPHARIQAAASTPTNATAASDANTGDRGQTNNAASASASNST
Procedure: as §1, §2
(§3) (50-1000 cpm/pmole) and incubated for 30 min at room temperature. Assays were stopped by addition of 5 μl of 0.5 M (3%) orthophosphoric acid and then harvested onto P81 Unifilter plates with a wash buffer of 50 mM orthophosphoric acid.

AMPK = assay: Kinase screen: AMPK assay; details: for mean activity remaining (as a percentage of the original activity), AMPK: 10 micromolar compound
Procedure: as §1, §2
AMPK assay: AMPK (5-20 mU diluted in 50 mM Hepes pH 7.5, 1 mM DTT, 0.02% Brij35) was assayed against SAMS substrate peptide ([…]) (SEQ ID NO: 11) in a final volume of 25.5 μl containing 50 mM Hepes pH 7.5, 1 mM DTT, 0.02% Brij35, 0.4 mM SAMS peptide, 0.196 mM AMP, 10 mM magnesium acetate and 0.05 mM [33P-g-ATP] (50-1000 cpm/pmole) and incubated for 30 min at room temperature. Assays were stopped by addition of 5 μl of 0.5 M (3%) orthophosphoric acid and then harvested onto P81 Unifilter plates with a wash buffer of 50 mM orthophosphoric acid.

Src = Src (Homo sapiens, UniProt P12931); assay: Kinase screen: Src assay
Src, sequence (P12931 whole entry, species assumed): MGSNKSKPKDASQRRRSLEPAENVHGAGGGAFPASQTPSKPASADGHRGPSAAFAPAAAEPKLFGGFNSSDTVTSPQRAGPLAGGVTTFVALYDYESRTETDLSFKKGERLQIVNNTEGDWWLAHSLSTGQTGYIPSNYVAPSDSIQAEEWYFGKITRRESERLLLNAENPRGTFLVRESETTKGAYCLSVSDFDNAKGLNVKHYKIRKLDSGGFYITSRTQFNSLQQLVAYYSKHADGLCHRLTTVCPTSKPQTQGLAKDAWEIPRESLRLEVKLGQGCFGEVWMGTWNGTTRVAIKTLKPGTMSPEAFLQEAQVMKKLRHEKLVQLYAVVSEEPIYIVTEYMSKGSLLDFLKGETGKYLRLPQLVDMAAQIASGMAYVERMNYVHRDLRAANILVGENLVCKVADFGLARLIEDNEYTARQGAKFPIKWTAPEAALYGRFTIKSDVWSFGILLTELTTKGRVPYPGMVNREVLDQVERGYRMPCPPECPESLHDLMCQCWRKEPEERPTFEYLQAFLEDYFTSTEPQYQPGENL
Procedure: as §1, §2, §3

[1] = 10 micromolar compound, read-out: mean activity remaining (as a percentage of the original activity), p38s MAPK
[2] = 10 micromolar compound, read-out: mean activity remaining (as a percentage of the original activity), ERK8
[3] = 10 micromolar compound, read-out: mean activity remaining (as a percentage of the original activity), PKA
[4] = 10 micromolar compound, read-out: mean activity remaining (as a percentage of the original activity), GSK 3b
[5] = 10 micromolar compound, read-out: mean activity remaining (as a percentage of the original activity), Src

Structure (SMILES)	remaining activity at 10 µM (p38σ MAPK; p38σ MAPK, 10 μM, read-out: Mean Remaining Enzyme Activity (%))	remaining activity at 10 µM (ERK8; ERK8, 10 μM, read-out: Mean Remaining Enzyme Activity (%))	remaining activity at 10 µM (PKA; PKA, 10 μM, read-out: Mean Remaining Enzyme Activity (%))	remaining activity at 10 µM (GSK3β; GSK3β, 10 μM, read-out: Mean Remaining Enzyme Activity (%))	Mean Remaining Enzyme Activity (%) (AMPK; AMPK, 10 μM)	remaining activity at 10 µM (Src; Src, 10 μM, read-out: Mean Remaining Enzyme Activity (%))	remaining activity at 10 µM (p38σ MAPK; [1])	remaining activity at 10 µM (ERK8; [2])	remaining activity at 10 µM (PKA; [3])	remaining activity at 10 µM (GSK3β; [4])	mean activity remaining (as a percentage of the original activity), AMPK (AMPK)	remaining activity at 10 µM (Src; [5])	mean activity remaining (as a percentage of the original activity), p38s MAPK (p38σ MAPK; 10 micromolar compound)	mean activity remaining (as a percentage of the original activity), ERK8 (ERK8; 10 micromolar compound)	mean activity remaining (as a percentage of the original activity), PKA (PKA; 10 micromolar compound)	mean activity remaining (as a percentage of the original activity), GSK 3b (GSK3β; 10 micromolar compound)	mean activity remaining (as a percentage of the original activity), Src (Src; 10 micromolar compound)
CC(C)c1cnn2c(NCc3ccccc3)cc(NCCCCCCCN)nc12 [BS-181]	96%	32%	110%	112%	122%	88%											
C=C[C@H](CO)Nc1cc(NCc2ccccc2)n2ncc(C(C)C)c2n1 [ICEC0065]							86%	28%	107%	92%	85%	112%					
CC[C@H](CO)Nc1cc(NCc2ccccc2)n2ncc(C(C)C)c2n1 [ICEC0067]							86%	23%	93%	72%	84%	90%					
CC(C)c1cnn2c(NCc3ccccc3)cc(N[C@@H](CO)[C@H](O)CO)nc12 [ICEC0318, (3S)-3-(7-(Benzylamino)-3-isopropylpyrazolo[1,5-a]pyrimidin-5-ylamino)butane-1,2,4-triol]							86%	26%	93%	63%	88%	95%					
CC(C)c1cnn2c(NCc3ccccc3F)cc(NCCCCCN)nc12 [ICEC-0232]											75%		78%	23%	96%	70%	96%
